Source: patent publication US20250098679A1, “HERBICIDAL PYRIDONE DERIVATIVES” (SYNGENTA CROP PROTECTION AG, priority 2021, published 2025)

Legend:
Format in all cases: in vivo
Conditions in all cases: evaluated after 13 days
[1] = system: Amaranthus retoflexus (AMARE); assay: Post-emergence Test, Amaranthus retoflexus (AMARE); parameters: key to percentage damage caused to the plant, AMARE (five-point scale): 5=81-100%, 4=61-80%, 3=41-60%, 2=21-40%, 1=0-20% damage
Procedure, shortened: (§1)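 Pots sprayed with compound in acetone/water (50:50) with 0.5% Tween 20, at 1000 g/ha unless noted, glasshouse 24/16 °C, 14 h light, 65% humidity. Damage scored 13 days after spraying on a five-point scale (5=81-100% to 1=0-20%).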

[2] = system: Amaranthus palmeri (AMAPA); assay: Post-emergence Test, Amaranthus palmeri (AMAPA); parameters: key: 5=81-100%, 4=61-80%, 3=41-60%, 2=21-40%, 1=0-20% damage
Procedure, shortened: as §1

[3] = system: Ipomoea hederacea (IPOHE); assay: Pre-emergence Test, Ipomoea hederacea (IPOHE)
[4] = system: Amaranthus retoflexus (AMARE); assay: Pre-emergence Test, Amaranthus retoflexus (AMARE)
[5] = system: Setaria faberi (SETFA); assay: Pre-emergence Test, Setaria faberi (SETFA)
[6] = system: Zea mays (ZEAMX); assay: Post-emergence Test, Zea mays (ZEAMX); parameters: key to percentage damage caused to the plant, ZEAMX (five-point scale): 5=81-100%, 4=61-80%, 3=41-60%, 2=21-40%, 1=0-20% damage
Procedure, shortened: as §1

[7] = system: Zea mays (ZEAMX); assay: Pre-emergence Test, Zea mays (ZEAMX)
[8] = system: Amaranthus palmeri (AMAPA); assay: Pre-emergence Test, Amaranthus palmeri (AMAPA)
[9] = system: Ipomoea hederacea (IPOHE); assay: Post-emergence Test, Ipomoea hederacea (IPOHE); parameters: key to percentage damage caused to the plant, IPOHE (five-point scale): 5=81-100%, 4=61-80%, 3=41-60%, 2=21-40%, 1=0-20% damage
Procedure, shortened: as §1

[10] = system: Echinochloa crus-galli (ECHCG); assay: Pre-emergence Test, Echinochloa crus-galli (ECHCG)
[11] = system: Echinochloa crus-galli (ECHCG); assay: Post-emergence Test, Echinochloa crus-galli (ECHCG); parameters: key to percentage damage caused to the plant, ECHCG (five-point scale): 5=81-100%, 4=61-80%, 3=41-60%, 2=21-40%, 1=0-20% damage
Procedure, shortened: as §1

[12] = system: Setaria faberi (SETFA); assay: Post-emergence Test, Setaria faberi (SETFA); parameters: key to percentage damage caused to the plant, SETFA (five-point scale): 5=81-100%, 4=61-80%, 3=41-60%, 2=21-40%, 1=0-20% damage
Procedure, shortened: as §1

Row | Structure (SMILES) | percentage damage caused to the plant, AMARE (five-point scale) ([1]; 250 g/Ha) | percentage damage caused to the plant, AMARE (five-point scale) ([1]; 1000 g/ha) | percentage damage caused to the plant, AMAPA (five-point scale) ([2]; 250 g/Ha) | percentage damage caused to the plant, AMAPA (five-point scale) ([2]; 1000 g/ha) | Pre-emergence Test IPOHE, percentage damage caused to the plant (five-point scale) ([3]; 250 g/Ha (*)) | Pre-emergence Test IPOHE, percentage damage caused to the plant (five-point scale) ([3]; 1000 g/ha) | Pre-emergence Test AMARE, percentage damage caused to the plant (five-point scale) ([4]; 250 g/Ha (*)) | Pre-emergence Test AMARE, percentage damage caused to the plant (five-point scale) ([4]; 1000 g/ha) | Pre-emergence Test SETFA, percentage damage caused to the plant (five-point scale) ([5]; 1000 g/ha) | percentage damage caused to the plant, ZEAMX (five-point scale) ([6]; 250 g/Ha) | percentage damage caused to the plant, ZEAMX (five-point scale) ([6]; 1000 g/ha) | Pre-emergence Test ZEAMX, percentage damage caused to the plant (five-point scale) ([7]; 1000 g/ha) | Pre-emergence Test AMAPA, percentage damage caused to the plant (five-point scale) ([8]; 1000 g/ha) | percentage damage caused to the plant, IPOHE (five-point scale) ([9]; 250 g/Ha) | percentage damage caused to the plant, IPOHE (five-point scale) ([9]; 1000 g/ha) | Pre-emergence Test ECHCG, percentage damage caused to the plant (five-point scale) ([10]; 1000 g/ha) | percentage damage caused to the plant, ECHCG (five-point scale) ([11]; 250 g/Ha) | percentage damage caused to the plant, ECHCG (five-point scale) ([11]; 1000 g/ha) | percentage damage caused to the plant, SETFA (five-point scale) ([12]; 250 g/Ha) | percentage damage caused to the plant, SETFA (five-point scale) ([12]; 1000 g/ha) | further results
1 | CCOC(=O)c1c(-c2ccc(Cl)c(Cl)c2)n(CC)c(Cn2ccc(C(F)(F)F)n2)cc1=O [Compound 1, ethyl 2-(3,4-dichlorophenyl)-1-ethyl-4-oxo-6-[[3-(trifluoromethyl)pyrazol-1-yl]methyl]pyridine-3-carboxylate] | 0 | 1 (1=0-20%) | 0 | 1 (1=0-20%) | 0 | 0 | 0 | 0 | 4 (4=61-80%) | 1 (1=0-20%) | 3 (3=41-60%) | 0 | 0 | 2 (2=21-40%) | 1 (1=0-20%) | 3 (3=41-60%) | 3 (3=41-60%) | 4 (4=61-80%) | 3 (3=41-60%) | 4 (4=61-80%) | Pre-emergence Test SETFA, percentage damage caused to the plant (five-point scale) ([5]; 250 g/Ha (*)): 4 (4=61-80%); Pre-emergence Test ZEAMX, percentage damage caused to the plant (five-point scale) ([7]; 250 g/Ha (*)): 0; Pre-emergence Test AMAPA, percentage damage caused to the plant (five-point scale) ([8]; 250 g/Ha (*)): 0; Pre-emergence Test ECHCG, percentage damage caused to the plant (five-point scale) ([10]; 250 g/Ha (*)): 2 (2=21-40%)
2 | COCCn1c(Cn2ccc(Cl)n2)cc(=O)c(C(=O)O)c1-c1ccc(Cl)c(Cl)c1 [Compound 171, 6-[(3-chloropyrazol-1-yl)methyl]-2-(3,4-dichlorophenyl)-1-(2-methoxyethyl)-4-oxo-pyridine-3-carboxylic acid] | 0 | 0 | 0 | 0 |  | 0 |  | 1 (1=0-20%) | 4 (4=61-80%) | 1 (1=0-20%) | 1 (1=0-20%) | 1 (1=0-20%) | 0 | 1 (1=0-20%) | 1 (1=0-20%) | 1 (1=0-20%) | 1 (1=0-20%) | 3 (3=41-60%) | 0 | 3 (3=41-60%) | 
3 | CCn1c(Cn2cncc2Cl)cc(=O)c(C(=O)O)c1-c1ccc(Cl)c(Cl)c1 [Compound 79, 6-[(5-chloroimidazol-1-yl)methyl]-2-(3,4-dichlorophenyl)-1-ethyl-4-oxo-pyridine-3-carboxylic acid] | 1 (1=0-20%) |  | 0 |  | 0 |  | 0 |  |  | 1 (1=0-20%) |  |  |  | 1 (1=0-20%) |  |  | 1 (1=0-20%) |  | 0 |  | Pre-emergence Test SETFA, percentage damage caused to the plant (five-point scale) ([5]; 250 g/Ha (*)): 1 (1=0-20%); Pre-emergence Test ZEAMX, percentage damage caused to the plant (five-point scale) ([7]; 250 g/Ha (*)): 0; Pre-emergence Test AMAPA, percentage damage caused to the plant (five-point scale) ([8]; 250 g/Ha (*)): 1 (1=0-20%); Pre-emergence Test ECHCG, percentage damage caused to the plant (five-point scale) ([10]; 250 g/Ha (*)): 1 (1=0-20%)
4 | CCn1c(Cn2cnc(C(F)(F)F)n2)cc(=O)c(C(=O)O)c1-c1ccc(Cl)c(Cl)c1 [Compound 7, 2-(3,4-dichlorophenyl)-1-ethyl-4-oxo-6-[[3-(trifluoromethyl)-1,2,4-triazol-1-yl]methyl]pyridine-3-carboxylic acid] |  | 1 (1=0-20%) |  | 1 (1=0-20%) |  | 0 |  | 0 | 3 (3=41-60%) |  | 1 (1=0-20%) | 1 (1=0-20%) | 0 |  | 1 (1=0-20%) | 3 (3=41-60%) |  | 2 (2=21-40%) |  | 4 (4=61-80%) | 
5 | CCn1c(Cn2nc(Cl)cc2C)cc(=O)c(C(=O)O)c1-c1ccc(Cl)c(Cl)c1 [Compound 15, 6-[(3-chloro-5-methyl-pyrazol-1-yl)methyl]-2-(3,4-dichlorophenyl)-1-ethyl-4-oxo-pyridine-3-carboxylic acid] | 5 (5=81-100%) | 3 (3=41-60%) | 5 (5=81-100%) | 5 (5=81-100%) |  | 3 (3=41-60%) |  | 2 (2=21-40%) | 4 (4=61-80%) | 2 (2=21-40%) | 3 (3=41-60%) | 2 (2=21-40%) | 5 (5=81-100%) | 3 (3=41-60%) | 5 (5=81-100%) | 4 (4=61-80%) | 4 (4=61-80%) | 4 (4=61-80%) | 3 (3=41-60%) | 4 (4=61-80%) | 
6 | CCn1c(Cn2cncn2)cc(=O)c(C(=O)O)c1-c1ccc(Cl)c(Cl)c1 [Compound 49, 2-(3,4-dichlorophenyl)-1-ethyl-4-oxo-6-(1,2,4-triazol-1-ylmethyl)pyridine-3-carboxylic acid] | 0 | 0 | 0 | 1 (1=0-20%) |  | 0 |  | 2 (2=21-40%) | 0 | 0 | 0 | 0 | 1 (1=0-20%) | 1 (1=0-20%) | 0 | 1 (1=0-20%) | 0 | 2 (2=21-40%) | 1 (1=0-20%) | 2 (2=21-40%) | 
